The test concerns HCV 1b-377-neo replicon cells. The test can be described thus: HCV replicon assay, HCV 1b-377-neo replicon cells (1b FRET). It is filed as cell-based, Hepatitis C virus genotype 1b. The note with it: Hepatitis C virus, HCV 1b-377-neo replicon cells; HCV 1b genotype; read-out: EC50 range against HCV 1b (Table 2, Range). The procedure, abridged:
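FRET-based replicon assay in HCV 1b-377-neo cells, including a comparison line carrying the NS5A Y2065H mutation that confers resistance to a reference compound.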

As for `COC(=O)N[C@@H](Cc1cccnc1)C(=O)N1CCC[C@H]1c1ncc(-c2ccc(-c3ccc(-c4cnc([C@@H]5CCCN5C(=O)[C@@H](NC(=O)OC)[C@@H](C)OC)[nH]4)cc3)cc2)[nH]1` [cj-82, methyl ((1S)-2-((2S)-2-(5-(4′-(2-((2S)-1-((2S,3R)-3-methoxy-2-((methoxycarbonyl)amino)butanoyl)-2-pyrrolidinyl)-1H-imidazol-5-yl)-4-biphenylyl)-1H-imidazol-2-yl)-1-pyrrolidinyl)-2-oxo-1-(3-pyridinylmethyl)ethyl)carbamate], the EC50 fell in the range of 0.001 to 0.999 nM.

Take `COC(=O)N[C@@H](Cc1cccnc1)C(=O)N1CCC[C@H]1c1ncc(-c2ccc(-c3ccc(-c4cnc([C@@H]5CCCN5C(=O)[C@@H](NC(=O)OC)C(C)C)[nH]4)cc3)cc2)[nH]1` [cj-83, methyl ((1S)-2-((2S)-2-(5-(4′-(2-((2S)-1-((2S)-2-((methoxycarbonyl)amino)-3-methylbutanoyl)-2-pyrrolidinyl)-1H-imidazol-5-yl)-4-biphenylyl)-1H-imidazol-2-yl)-1-pyrrolidinyl)-2-oxo-1-(3-pyridinylmethyl)ethyl)carbamate]: the EC50 is 0.001 to 0.999 nM.

On to `CCN(CC)[C@@H](C(=O)N1CCC[C@H]1c1ncc(-c2ccc(-c3ccc(-c4cnc([C@@H]5CCCN5C(=O)[C@H](Cc5cccnc5)NC(=O)OC)[nH]4)cc3)cc2)[nH]1)c1ccccc1` [cj-84, methyl ((1S)-2-((2S)-2-(5-(4′-(2-((2S)-1-((2R)-2-(diethylamino)-2-phenylacetyl)-2-pyrrolidinyl)-1H-imidazol-5-yl)-4-biphenylyl)-1H-imidazol-2-yl)-1-pyrrolidinyl)-2-oxo-1-(3-pyridinylmethyl)ethyl)carbamate], for which the EC50 was 0.001 to 0.999 nM.

Turning to `COC(=O)N[C@@H](C)C(=O)N1CCC[C@H]1c1ncc(-c2ccc(-c3ccc(-c4cnc([C@@H]5CCCN5C(=O)[C@H](Cc5cccnc5)NC(=O)OC)[nH]4)cc3)cc2)[nH]1` [cj-85, methyl ((1S)-2-((2S)-2-(5-(4′-(2-((2S)-1-(N-(methoxycarbonyl)-L-alanyl)-2-pyrrolidinyl)-1H-imidazol-5-yl)-4-biphenylyl)-1H-imidazol-2-yl)-1-pyrrolidinyl)-2-oxo-1-(3-pyridinylmethyl)ethyl)carbamate], the EC50 fell in the range of 0.001 to 0.999 nM.

In the case of `COC(=O)N[C@@H]1CC[C@H](C(=O)N2CCC[C@H]2c2ncc(-c3ccc(-c4ccc(-c5cnc([C@@H]6CCCN6C(=O)[C@@H](NC(=O)OC)[C@@H](C)OC)[nH]5)cc4)cc3)[nH]2)C1` [cj-86, methyl ((1R,3S)-3-(((2S)-2-(5-(4′-(2-((2S)-1-((2S)-3-methoxy-2-((methoxycarbonyl)amino)butanoyl)-2-pyrrolidinyl)-1H-imidazol-5-yl)-4-biphenylyl)-1H-imidazol-2-yl)-1-pyrrolidinyl)carbonyl)cyclopentyl)carbamate], the EC50 is 0.001 to 0.999 nM.

As for `COC(=O)N[C@@H](Cc1ccncc1)C(=O)N1CCC[C@H]1c1ncc(-c2ccc(-c3ccc(-c4cnc([C@@H]5CCCN5C(=O)[C@@H](NC(=O)OC)[C@@H](C)OC)[nH]4)cc3)cc2)[nH]1` [cj-87, methyl ((1S)-2-((2S)-2-(5-(4′-(2-((2S)-1-((2S,3R)-3-methoxy-2-((methoxycarbonyl)amino)butanoyl)-2-pyrrolidinyl)-1H-imidazol-5-yl)-4-biphenylyl)-1H-imidazol-2-yl)-1-pyrrolidinyl)-2-oxo-1-(4-pyridinylmethyl)ethyl)carbamate], the EC50 lay in the range of 0.001 to 0.999 nM.

Regarding `COC(=O)N[C@@H](Cc1ccncc1)C(=O)N1CCC[C@H]1c1ncc(-c2ccc(-c3ccc(-c4cnc([C@@H]5CCCN5C(=O)[C@@H](NC(=O)OC)C(C)C)[nH]4)cc3)cc2)[nH]1` [cj-88, methyl ((1S)-2-((2S)-2-(5-(4′-(2-((2S)-1-((2S)-2-((methoxycarbonyl)amino)-3-methylbutanoyl)-2-pyrrolidinyl)-1H-imidazol-5-yl)-4-biphenylyl)-1H-imidazol-2-yl)-1-pyrrolidinyl)-2-oxo-1-(4-pyridinylmethyl)ethyl)carbamate], the 50% effective concentration (EC50) lay within 0.001 to 0.999 nM.

Consider `CCN(CC)[C@@H](C(=O)N1CCC[C@H]1c1ncc(-c2ccc(-c3ccc(-c4cnc([C@@H]5CCCN5C(=O)[C@H](Cc5ccncc5)NC(=O)OC)[nH]4)cc3)cc2)[nH]1)c1ccccc1` [cj-89, methyl ((1S)-2-((2S)-2-(5-(4′-(2-((2S)-1-((2R)-2-(diethylamino)-2-phenylacetyl)-2-pyrrolidinyl)-1H-imidazol-5-yl)-4-biphenylyl)-1H-imidazol-2-yl)-1-pyrrolidinyl)-2-oxo-1-(4-pyridinylmethyl)ethyl)carbamate], for which the concentration giving a half-maximal response (EC50) lay in the range of 0.001 to 0.999 nM.

On to `COC(=O)N[C@@H](C)C(=O)N1CCC[C@H]1c1ncc(-c2ccc(-c3ccc(-c4cnc([C@@H]5CCCN5C(=O)[C@H](Cc5ccncc5)NC(=O)OC)[nH]4)cc3)cc2)[nH]1` [cj-90, methyl ((1S)-2-((2S)-2-(5-(4′-(2-((2S)-1-(N-(methoxycarbonyl)-L-alanyl)-2-pyrrolidinyl)-1H-imidazol-5-yl)-4-biphenylyl)-1H-imidazol-2-yl)-1-pyrrolidinyl)-2-oxo-1-(4-pyridinylmethyl)ethyl)carbamate], for which the EC50 lay within 0.001 to 0.999 nM.

On to `COC(=O)N[C@@H](Cc1ccc(OP(=O)(O)OC)cc1)C(=O)N1CCC[C@H]1c1ncc(-c2ccc(-c3ccc(-c4cnc([C@@H]5CCCN5C(=O)[C@@H](NC(=O)OC)C(C)C)[nH]4)cc3)cc2)[nH]1` [cj-91, methyl ((1S)-1-(((2S)-2-(5-(4′-(2-((2S)-1-(O-(hydroxy(methoxy)phosphoryl)-N-(methoxycarbonyl)-L-tyrosyl)-2-pyrrolidinyl)-1H-imidazol-5-yl)-4-biphenylyl)-1H-imidazol-2-yl)-1-pyrrolidinyl)carbonyl)-2-methylpropyl)carbamate], for which the 50% effective concentration (EC50) is 0.001 to 0.999 nM.

For the compound `COC(=O)N[C@@H](Cc1ccc(OP(=O)(O)OC)cc1)C(=O)N1CCC[C@H]1c1ncc(-c2ccc(-c3ccc(-c4cnc([C@@H]5CCCN5C(=O)[C@@H](NC(=O)OC)[C@@H](C)OC)[nH]4)cc3)cc2)[nH]1` [cj-92, methyl ((1S,2R)-1-(((2S)-2-(5-(4′-(2-((2S)-1-(O-(hydroxy(methoxy)phosphoryl)-N-(methoxycarbonyl)-L-tyrosyl)-2-pyrrolidinyl)-1H-imidazol-5-yl)-4-biphenylyl)-1H-imidazol-2-yl)-1-pyrrolidinyl)carbonyl)-2-methoxypropyl)carbamate], the concentration for a half-maximal effect (EC50) fell in the range of 1 to 99 nM.

On to `COC(=O)N[C@H](C(=O)N1CCC[C@H]1c1ncc(-c2ccc(-c3ccc(-c4cnc([C@@H]5CCCN5C(=O)[C@H]5CCCC[C@H]5NC(=O)OC)[nH]4)cc3)cc2)[nH]1)C(C)C` [cj-93, methyl ((1S)-1-(((2S)-2-(5-(4′-(2-((2S)-1-(((1S,2R)-2-((methoxycarbonyl)amino)cyclohexyl)carbonyl)-2-pyrrolidinyl)-1H-imidazol-5-yl)-4-biphenylyl)-1H-imidazol-2-yl)-1-pyrrolidinyl)carbonyl)-2-methylpropyl)carbamate], for which the EC50 was in the range of 0.001 to 0.999 nM.

`CCN(CC)[C@@H](C(=O)N1CCC[C@H]1c1ncc(-c2ccc(-c3ccc(-c4cnc([C@@H]5CCCN5C(=O)[C@H]5CCCC[C@H]5NC(=O)OC)[nH]4)cc3)cc2)[nH]1)c1ccccc1` [cj-94, methyl ((1R,2S)-2-(((2S)-2-(5-(4′-(2-((2S)-1-((2R)-2-(diethylamino)-2-phenylacetyl)-2-pyrrolidinyl)-1H-imidazol-5-yl)-4-biphenylyl)-1H-imidazol-2-yl)-1-pyrrolidinyl)carbonyl)cyclohexyl)carbamate]: the EC50 was in the range of 0.001 to 0.999 nM.

`COC(=O)N[C@@H](C(=O)N1CCC[C@H]1c1ncc(-c2ccc(-c3ccc(-c4cnc([C@@H]5CCCN5C(=O)[C@H]5CCCC[C@H]5NC(=O)OC)[nH]4)cc3)cc2)[nH]1)c1ccccc1` [cj-95, methyl ((1R)-2-((2S)-2-(5-(4′-(2-((2S)-1-(((1S,2R)-2-((methoxycarbonyl)amino)cyclohexyl)carbonyl)-2-pyrrolidinyl)-1H-imidazol-5-yl)-4-biphenylyl)-1H-imidazol-2-yl)-1-pyrrolidinyl)-2-oxo-1-phenylethyl)carbamate]: the EC50 lay within 0.001 to 0.999 nM.

With `COC(=O)N[C@@H](C)C(=O)N1CCC[C@H]1c1ncc(-c2ccc(-c3ccc(-c4cnc([C@@H]5CCCN5C(=O)[C@H]5CCCC[C@H]5NC(=O)OC)[nH]4)cc3)cc2)[nH]1` [cj-96, methyl ((1R,2S)-2-(((2S)-2-(5-(4′-(2-((2S)-1-(N-(methoxycarbonyl)-L-alanyl)-2-pyrrolidinyl)-1H-imidazol-5-yl)-4-biphenylyl)-1H-imidazol-2-yl)-1-pyrrolidinyl)carbonyl)cyclohexyl)carbamate], the EC50 was 0.001 to 0.999 nM.

As to `CCN(CC)[C@H]1CC[C@@H](C(=O)N2CCC[C@H]2c2ncc(-c3ccc(-c4ccc(-c5cnc([C@@H]6CCCN6C(=O)[C@H]6CCCC[C@H]6NC(=O)OC)[nH]5)cc4)cc3)[nH]2)CC1` [cj-97, methyl ((1R,2S)-2-(((2S)-2-(5-(4′-(2-((2S)-1-((cis-4-(diethylamino)cyclohexyl)carbonyl)-2-pyrrolidinyl)-1H-imidazol-5-yl)-4-biphenylyl)-1H-imidazol-2-yl)-1-pyrrolidinyl)carbonyl)cyclohexyl)carbamate], the EC50 lay within 0.001 to 0.999 nM.

As for `COC(=O)N[C@@H]1CCCC[C@@H]1C(=O)N1CCC[C@H]1c1ncc(-c2ccc(-c3ccc(-c4cnc([C@@H]5CCCN5C(=O)[C@H](NC(C)=O)c5ccccc5)[nH]4)cc3)cc2)[nH]1` [cj-98, methyl ((1R,2S)-2-(((2S)-2-(5-(4′-(2-((2S)-1-((2R)-2-acetamido-2-phenylacetyl)-2-pyrrolidinyl)-1H-imidazol-5-yl)-4-biphenylyl)-1H-imidazol-2-yl)-1-pyrrolidinyl)carbonyl)cyclohexyl)carbamate], the EC50 fell in the range of 0.001 to 0.999 nM.

As for `COC(=O)N[C@@H](Cc1c[nH]c2ccccc12)C(=O)N1CCC[C@H]1c1ncc(-c2ccc(-c3ccc(-c4cnc([C@@H]5CCCN5C(=O)[C@@H](NC(=O)OC)C(C)C)[nH]4)cc3)cc2)[nH]1` [cj-99, methyl ((1S)-1-(((2S)-2-(5-(4′-(2-((2S)-1-((2S)-3-(1H-indol-3-yl)-2-((methoxycarbonyl)amino)propanoyl)-2-pyrrolidinyl)-1H-imidazol-5-yl)-4-biphenylyl)-1H-imidazol-2-yl)-1-pyrrolidinyl)carbonyl)-2-methylpropyl)carbamate], the EC50 was 0.001 to 0.999 nM.

The values are drawn from patent US8574563B2 (Bristol-Myers Squibb Company, priority 2006, dated 2013).
